Where a name gives a salt, the structure may show the parent alone.
What was measured:
[1] = tested on: various breast cancer cells; details: various breast cancer cells in vitro; cited from earlier work
[2] = cited from earlier work
[3] = Kinetic solubility study of metformin salts in lipid excipients; details: for solubility in lipid vehicles: Miglyol 812N and Capryol 90 (text statement for both); for solubility (mg/g) of lipid excipient: medium-chain triglyceride (Miglyol 812N), kinetic solubility, visual inspection
[4] = tested on: MYCN-2 and SK-N-Be2c neuroblastoma cells; assay: In vitro cytotoxicity, SRB assay, statements spanning both neuroblastoma lines; format: cell-based, human; details: MYCN-2 and SK-N-Be2c cells
Solubility in water = format: physicochemical; details: data not shown
[5] = tested on: triple-negative breast cancer; details: mouse model of triple-negative breast cancer, 250 mg/kg; cited from earlier work
cancer cells = details: read-out: IC50, anticancer activity; cited from earlier work
SK-N-Be2c cells = assay: In vitro cytotoxicity, SRB assay, SK-N-Be2c cells; format: cell-based; details: Homo sapiens, SK-N-BE(2)-C, read-out: IC50, cytotoxicity (Be2c)
MYCN-2 cells = assay: In vitro cytotoxicity, SRB assay, MYCN-2 cells; format: cell-based; details: Homo sapiens, read-out: IC50, cytotoxicity (MYCN)

## CN(C)C(=N)NC(=N)N.NCC1(CC(=O)O)CCCCC1 [metformin gabapentin salt]
[1]
  improvement of the potency of metformin: 2- to 10 fold

## CCCCC(CC)COC(=O)CC(C(=O)OCC(CC)CCCC)S(=O)(=O)O.CN(C)C(=N)N=C(N)N (stereo not drawn) [metformin docusate, Metformin Docusate]
[2]
  solubility in medium-chain triglycerides and propylene glycol fatty acid esters: > 75 mg/g
[3]
  solubility in lipid vehicles: > 200 mg/g
  solubility (mg/g) of lipid excipient: >200 mg/g
[4]
  improvement in anticancer potency (lower IC50) compared to metformin hydrochloride: 700- to 4300 fold

## CN(C)C(=N)NC(=N)N.C[C@H](CCC(=O)O)[C@H]1CC[C@H]2[C@@H]3[C@H](O)C[C@@H]4C[C@H](O)CC[C@]4(C)[C@H]3C[C@H](O)[C@]12C [metformin cholate, Metformin Cholate]
Solubility in water
  water solubility: > 1000 µg/mL
[3]
  solubility in lipid vehicles: < 5 mg/g
  solubility (mg/g) of lipid excipient: <5 mg/g

## CCCC(=O)O.CN(C)C(=N)N=C(N)N [metformin butyrate]
[5]
  anticancer activity versus metformin: significantly higher anticancer activity than metformin
[1]
  improvement of the potency of metformin: 2- to 10 fold

## CC(C)C[C@H](CN)CC(=O)O.CN(C)C(=N)NC(=N)N [metformin pregabalin salt]
[1]
  improvement of the potency of metformin: 2- to 10 fold

## CN(C)C(=N)NC(=N)N.NCCCC(=O)O [metformin gamma-aminobutyric acid salt]
[1]
  improvement of the potency of metformin: 2- to 10 fold

## CN(C)C(=N)N=C(N)N [metformin hydrochloride, Metformin hydrochloride]
Cancer cells
  IC50: > 1 mM
SK-N-Be2c cells
  IC50: > 100 mM
MYCN-2 cells
  IC50: > 100 mM
